From patent US20060035969A1, “Novel modulators of the PPAR-type receptors and cosmetic/pharmaceutical compositions comprised thereof” (GALDERMA RESEARCH & DEVELOPMENT, S.N.C., priority 2003, published 2006)

What was measured:
Format in all cases: cell-based
PPARγ = target: T1, PPARγ (Homo sapiens, UniProt P37231); assay: Cross curve PPAR transactivation test (PPARγ); details: HeLN cells stably transfected with ERE-βGlob-Luc-SV-Neo and Gal-hPPARγ; cross curves against reference agonist, Schild regression; read-out: PPAR gamma Kd app
T1 construct: It is a handle made for the test, not a second protein
T1 sequence (P37231 238-505 limits assumed): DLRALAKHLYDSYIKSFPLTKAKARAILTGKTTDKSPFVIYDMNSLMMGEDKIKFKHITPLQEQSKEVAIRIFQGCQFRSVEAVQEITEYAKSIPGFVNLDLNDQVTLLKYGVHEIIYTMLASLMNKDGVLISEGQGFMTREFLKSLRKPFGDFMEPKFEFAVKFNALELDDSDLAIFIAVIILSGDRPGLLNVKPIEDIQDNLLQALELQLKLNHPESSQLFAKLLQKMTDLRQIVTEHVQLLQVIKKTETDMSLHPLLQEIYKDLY
Method: (§1) The activation of receptors with an agonist (activator) in HeLN cells leads to the expression of a reporter gene, luciferase, which, in the presence of a substrate, generates light. The modulation of the receptors is measured as quantity of luminescence produced after incubating the cells in the presence of a reference agonist. The ligands will displace the agonist from its site. The measurement of the activity is performed by quantification of the light produced. This measurement makes it possible to determine the modulatory activity of the compounds according to the invention by determining the constant which is the affinity of the molecule for the receptor. Since this value can fluctuate according to the basal activity and the expression of the receptor, it is called apparent Kd (KdApp in nM).
(§2) To determine this constant, “cross curves” for the product to be tested against a reference agonist are produced in a 96-well plate: 10 concentrations of the test product plus a concentration 0 are placed in a line, and 7 concentrations of the agonist plus one concentration 0 are placed in a column. This is 88 measurement points for 1 product and 1 receptor. The 8 remaining wells are used for repeatability controls. […]
(§3) The various dilutions of the test products and of the reference ligand are added in an amount of 5 μl per well. […] After 5 minutes, the plates are read by the luminescence reader.

PPARα = target: T2, PPARα (Homo sapiens, UniProt Q07869); assay: Cross curve PPAR transactivation test (PPARα); details: HeLN cells stably transfected with ERE-βGlob-Luc-SV-Neo and Gal-hPPARα; cross curves against reference agonist, Schild regression; read-out: PPAR alpha Kd app
T2 construct: It is a handle made for the test, not a second protein
T2 sequence (Q07869 200-468 limits assumed): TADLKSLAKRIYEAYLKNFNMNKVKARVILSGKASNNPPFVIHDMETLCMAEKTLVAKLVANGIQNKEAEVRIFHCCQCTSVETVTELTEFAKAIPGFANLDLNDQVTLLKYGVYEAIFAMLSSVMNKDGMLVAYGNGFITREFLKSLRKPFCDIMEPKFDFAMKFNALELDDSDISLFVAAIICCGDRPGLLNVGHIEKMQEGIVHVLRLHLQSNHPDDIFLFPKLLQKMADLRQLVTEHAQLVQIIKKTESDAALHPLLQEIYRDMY
Method: as §1, §2, §3

PPARδ = target: T3, PPARδ (Homo sapiens, UniProt Q03181); assay: Cross curve PPAR transactivation test (PPARδ); details: HeLN cells stably transfected with ERE-βGlob-Luc-SV-Neo and Gal-hPPARδ; cross curves against reference agonist, Schild regression; read-out: PPAR delta Kd app
T3 construct: It is a handle made for the test, not a second protein
T3 sequence (Q03181 211-441 limits assumed): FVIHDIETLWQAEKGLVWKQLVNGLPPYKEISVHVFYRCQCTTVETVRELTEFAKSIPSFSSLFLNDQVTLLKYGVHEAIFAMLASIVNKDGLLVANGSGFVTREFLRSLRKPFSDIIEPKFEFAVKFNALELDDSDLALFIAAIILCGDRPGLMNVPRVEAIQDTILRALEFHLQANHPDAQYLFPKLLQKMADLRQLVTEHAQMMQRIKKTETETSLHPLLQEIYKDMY
Method: as §1, §2, §3

Kd (PPARγ)	Kd (PPARα)	Kd (PPARδ)	SMILES
30 nM	250 nM	15 nM	O=C(O)Cc1cccc(Sc2ccc(N(CCc3ccccc3)C(=O)NC3CCCCC3)cc2)c1 [Example 18b, {3-[4-(3-Cyclohexyl-1-phenethylureido)phenylsulfanyl]phenyl}acetic acid]
500 nM	–	60 nM	CCCCCCCN(C(=O)NCCc1ccccc1)c1cccc(Sc2cccc(CC(=O)O)c2)c1 [Example 25b, {3-[3-(1-Heptyl-3-phenethylureido)phenylsulfanyl]phenyl}acetic acid]
